Measured values from patent US6632630B2, “Monooxygenase assays” (Aclara Biosciences, Inc., priority 2000, dated 2003).

Assay: Solubility in water
Format: physicochemical

For `O=c1ccc2nc3ccc(OCc4ccccc4)cc3oc-2c1` [7-BR, 7-benzyloxyresorufin], the solubility in water was “very limited solubility”.
